The experiment concerns the target porcine pancreatic elastase (PPE) (Sus scrofa, UniProt P00772). Kind of experiment: PPE enzyme assay. Format: biochemical.

Sequence of porcine pancreatic elastase (PPE) (P00772 27-266): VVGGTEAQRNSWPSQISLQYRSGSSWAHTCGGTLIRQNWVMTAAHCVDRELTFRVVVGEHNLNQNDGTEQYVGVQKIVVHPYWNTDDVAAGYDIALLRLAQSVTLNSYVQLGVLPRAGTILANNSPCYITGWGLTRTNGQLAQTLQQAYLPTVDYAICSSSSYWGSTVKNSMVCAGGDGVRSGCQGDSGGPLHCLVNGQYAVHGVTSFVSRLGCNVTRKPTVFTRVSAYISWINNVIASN

As usually defined, the IC50 is the point on the concentration scale where inhibition reaches its midpoint. `CC(C)(C)C(=O)Oc1ccc(S(=O)(=O)Nc2ccccc2C(=O)NCC(=O)O)cc1` [sivelestat] displayed an IC50 of 3.08 µM. That is a single-digit micromolar value.

Source of the values: publication PMC4734386 (The Journal of organic chemistry, 2015).
